Here are results for 18 molecules from the supplement of paper PMC10627819.

What all share (test): Bliss interaction score (quartile over a dose matrix) (fitness difference); higher = more antagonism (negative = synergy)
In one experiment the test system is B. subtilis 168. The essentials: (§1)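 Fitness was derived from optical density at entry into stationary phase, divided by the robust mean of the no-drug wells on the same plate. That reading was taken as OD595, and the ratio was capped at 1. Single-drug fitness was inferred from the combination data. The Bliss score, observed fitness minus the expected product of single-drug fitness, was summarised as quartiles over technical, biological and donor/recipient replicates.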

Another experiment has as its system S. aureus DSM 20231. The essentials: as §1
The subject of the next experiment is S. aureus Newman. The essentials: as §1
The next experiment concerns S. pneumoniae D39V. The method in brief:
as §1

The structures appear in SMILES notation.
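Further: first quartile when negative (synergy) and third quartile when positive (antagonism).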

As for `CCCCCCCCCC(=O)N[C@@H](Cc1c[nH]c2ccccc12)C(=O)N[C@H](CC(N)=O)C(=O)N[C@@H](CC(=O)O)C(=O)N[C@@H]1C(=O)NCC(=O)N[C@@H](CCCN)C(=O)N[C@@H](CC(=O)O)C(=O)N[C@H](C)C(=O)N[C@@H](CC(=O)O)C(=O)NCC(=O)N[C@H](CO)C(=O)N[C@@H]([C@H](C)CC(=O)O)C(=O)N[C@@H](CC(=O)c2ccccc2N)C(=O)O[C@@H]1C` [Daptomycin] + CC1(C)S[C@@H]2[C@H](NC(=O)Cc3ccccc3)C(=O)N2[C@H]1C(=O)O [PenicillinG], the Bliss interaction score in the experiment on B. subtilis 168 came out at 0.101; in the experiment with S. aureus DSM 20231, 0.0411; in the experiment with S. aureus Newman, 0.0645; with S. pneumoniae D39V, 0.107.
As for `C[C@H]1COc2c(N3CCN(C)CC3)c(F)cc3c(=O)c(C(=O)O)cn1c23` [Levofloxacin] + CC1(C)S[C@@H]2[C@H](NC(=O)Cc3ccccc3)C(=O)N2[C@H]1C(=O)O [PenicillinG], the Bliss interaction score in the experiment with B. subtilis 168 is 0.0528; in the experiment with S. aureus DSM 20231, 0.0432; in the experiment on S. aureus Newman it was -0.0602; in the experiment on S. pneumoniae D39V, -0.103.
As to `CO/N=C(\C(=O)N[C@@H]1C(=O)N2C(C(=O)[O-])=C(C[N+]3(C)CCCC3)CS[C@H]12)c1csc(N)n1` [Cefepime] + COc1cccc2c1C(=O)c1c(O)c3c(c(O)c1C2=O)C[C@@](O)(C(=O)CO)C[C@@H]3O[C@H]1C[C@H](N)[C@H](O)[C@H](C)O1 [Doxorubicin], the Bliss interaction score was -0.239 in the experiment on B. subtilis 168, -0.1 with S. aureus DSM 20231, -0.0429 in the experiment on S. aureus Newman and 0.0847 in the experiment with S. pneumoniae D39V.
The like results for `CO/N=C(\C(=O)N[C@@H]1C(=O)N2C(C(=O)[O-])=C(C[N+]3(C)CCCC3)CS[C@H]12)c1csc(N)n1` [Cefepime] + O=C(O)[C@H]1/C(=C/CO)O[C@@H]2CC(=O)N21 [Clavulanic] were, in that order, -0.0808, 0.0843, 0.0605 and -0.0597.
`CO/N=C(\C(=O)N[C@@H]1C(=O)N2C(C(=O)[O-])=C(C[N+]3(C)CCCC3)CS[C@H]12)c1csc(N)n1` [Cefepime] + CO[C@@H]1[C@@H](OC(N)=O)[C@@H](O)[C@H](Oc2ccc3c(O)c(NC(=O)c4ccc(O)c(CC=C(C)C)c4)c(=O)oc3c2C)OC1(C)C [Novobiocin]: the Bliss interaction score was -0.104 in the experiment with B. subtilis 168, 0.0654 in the experiment with S. aureus DSM 20231, 0.0516 with S. aureus Newman and -0.098 in the experiment with S. pneumoniae D39V.
As to `CCN(CC)CCOC(=O)c1ccc(N)cc1` [Procaine] + C/C(=C\C(=O)OCCCCCCCCC(=O)O)C[C@@H]1OC[C@H](C[C@@H]2O[C@H]2[C@@H](C)[C@H](C)O)[C@@H](O)[C@H]1O [Pseudomonic acid], the Bliss interaction score with B. subtilis 168 is 0.0611; in the experiment with S. aureus DSM 20231, 0.0122; in the experiment on S. aureus Newman, 0.0207; with S. pneumoniae D39V, -0.0844.
On to `CC1(C)S[C@@H]2[C@H](NC(=O)[C@H](N)c3ccc(O)cc3)C(=O)N2[C@H]1C(=O)O` [Amoxicillin] + CO[C@@H]1[C@@H](OC(N)=O)[C@@H](O)[C@H](Oc2ccc3c(O)c(NC(=O)c4ccc(O)c(CC=C(C)C)c4)c(=O)oc3c2C)OC1(C)C [Novobiocin], for which the Bliss interaction score with B. subtilis 168 was 0.0931; with S. aureus DSM 20231 it was 0.0568; with S. aureus Newman, -0.0655; with S. pneumoniae D39V, 0.125.
Consider `CC1(C)S[C@@H]2[C@H](NC(=O)[C@H](N)c3ccc(O)cc3)C(=O)N2[C@H]1C(=O)O` [Amoxicillin] + CC[C@H]1OC(=O)[C@H](C)C(=O)[C@H](C)[C@@H](O[C@@H]2O[C@H](C)C[C@H](N(C)C)[C@H]2O)[C@](C)(OC)C[C@@H](C)C(=O)[C@H](C)[C@H]2N(CCCCn3cnc(-c4cccnc4)c3)C(=O)O[C@]12C [Telithromycin], for which the Bliss interaction score was -0.0851 in the experiment with B. subtilis 168, -0.0292 in the experiment with S. aureus DSM 20231, -0.0609 with S. aureus Newman and 0.0336 in the experiment on S. pneumoniae D39V.
The like results for `CC1(C)S[C@@H]2[C@H](NC(=O)[C@H](N)c3ccc(O)cc3)C(=O)N2[C@H]1C(=O)O` [Amoxicillin] + CC[C@H]1OC(=O)[C@H](C)[C@@H](O[C@H]2C[C@@](C)(OC)[C@@H](O)[C@H](C)O2)[C@H](C)[C@@H](O[C@@H]2O[C@H](C)C[C@H](N(C)C)[C@H]2O)[C@](C)(O)C[C@@H](C)C(=O)[C@H](C)[C@@H](O)[C@]1(C)O [Erythromycin] were, in that order, 0.0751, -0.023, -0.0553 and 0.0883.
As for `CO/N=C(\C(=O)N[C@@H]1C(=O)N2C(C(=O)[O-])=C(C[N+]3(C)CCCC3)CS[C@H]12)c1csc(N)n1` [Cefepime] + CC[C@H]1OC(=O)[C@H](C)C(=O)[C@H](C)[C@@H](O[C@@H]2O[C@H](C)C[C@H](N(C)C)[C@H]2O)[C@](C)(OC)C[C@@H](C)C(=O)[C@H](C)[C@H]2N(CCCCn3cnc(-c4cccnc4)c3)C(=O)O[C@]12C [Telithromycin], the Bliss interaction score in the experiment on B. subtilis 168 was 0.122; in the experiment on S. aureus DSM 20231, 0.0789; in the experiment with S. aureus Newman, 0.0252; with S. pneumoniae D39V, -0.0487.
As for `CCCCCCCCCC(=O)N[C@@H](Cc1c[nH]c2ccccc12)C(=O)N[C@H](CC(N)=O)C(=O)N[C@@H](CC(=O)O)C(=O)N[C@@H]1C(=O)NCC(=O)N[C@@H](CCCN)C(=O)N[C@@H](CC(=O)O)C(=O)N[C@H](C)C(=O)N[C@@H](CC(=O)O)C(=O)NCC(=O)N[C@H](CO)C(=O)N[C@@H]([C@H](C)CC(=O)O)C(=O)N[C@@H](CC(=O)c2ccccc2N)C(=O)O[C@@H]1C` [Daptomycin] + Oc1cc(Cl)ccc1Oc1ccc(Cl)cc1Cl [Triclosan], the Bliss interaction score is -0.0488 in the experiment with B. subtilis 168, 0.0576 in the experiment on S. aureus DSM 20231, -0.0264 in the experiment on S. aureus Newman and 0.0768 with S. pneumoniae D39V.
For `CO/N=C(\C(=O)N[C@@H]1C(=O)N2C(C(=O)[O-])=C(C[N+]3(C)CCCC3)CS[C@H]12)c1csc(N)n1` [Cefepime] + O=C(O)c1cn(C2CC2)c2cc(N3CCNCC3)c(F)cc2c1=O [Ciprofloxacin], the Bliss interaction score with B. subtilis 168 is -0.193; in the experiment on S. aureus DSM 20231, -0.0463; in the experiment on S. aureus Newman, 0.0601; with S. pneumoniae D39V, 0.147.
The like results for `CO/N=C(\C(=O)N[C@@H]1C(=O)N2C(C(=O)[O-])=C(C[N+]3(C)CCCC3)CS[C@H]12)c1csc(N)n1` [Cefepime] + Oc1cc(Cl)ccc1Oc1ccc(Cl)cc1Cl [Triclosan] were, in that order, 0.0502, 0.0725, -0.0285 and -0.0485.
For the molecule `CCCCCCCCCC(=O)N[C@@H](Cc1c[nH]c2ccccc12)C(=O)N[C@H](CC(N)=O)C(=O)N[C@@H](CC(=O)O)C(=O)N[C@@H]1C(=O)NCC(=O)N[C@@H](CCCN)C(=O)N[C@@H](CC(=O)O)C(=O)N[C@H](C)C(=O)N[C@@H](CC(=O)O)C(=O)NCC(=O)N[C@H](CO)C(=O)N[C@@H]([C@H](C)CC(=O)O)C(=O)N[C@@H](CC(=O)c2ccccc2N)C(=O)O[C@@H]1C` [Daptomycin] + CC[C@H]1OC(=O)[C@H](C)C(=O)[C@H](C)[C@@H](O[C@@H]2O[C@H](C)C[C@H](N(C)C)[C@H]2O)[C@](C)(OC)C[C@@H](C)C(=O)[C@H](C)[C@H]2N(CCCCn3cnc(-c4cccnc4)c3)C(=O)O[C@]12C [Telithromycin], the Bliss interaction score is 0.0516 with B. subtilis 168, 0.0926 in the experiment on S. aureus DSM 20231, 0.0361 with S. aureus Newman and -0.0436 in the experiment on S. pneumoniae D39V.
Take `CN(C)C(=O)C(CCN1CCC(O)(c2ccc(Cl)cc2)CC1)(c1ccccc1)c1ccccc1` [Loperamide] + CCCCCCCCCC(=O)N[C@@H]1[C@H]([C@@H]([C@H](O[C@H]1OC2=C3C=C4C=C2OC5=C(C=C(C=C5)[C@H]([C@H]6C(=O)N[C@@H](C7=C(C(=CC(=C7)O)OC8[C@H]([C@H]([C@@H]([C@H](O8)CO)O)O)O)C9=C(C=CC(=C9)[C@H](C(=O)N6)NC(=O)[C@@H]4NC(=O)[C@@H]1C2=CC(=CC(=C2)OC2=C(C=CC(=C2)[C@H](C(=O)N[C@H](CC2=CC(=C(O3)C=C2)Cl)C(=O)N1)N)O)O)O)C(=O)O)O[C@H]1[C@@H]([C@H]([C@@H]([C@H](O1)CO)O)O)NC(=O)C)Cl)CO)O)O [Teicoplanin]: the Bliss interaction score with B. subtilis 168 (main component drawn) was 0.0883; in the experiment on S. aureus DSM 20231 (main component drawn), -0.114; in the experiment with S. aureus Newman (main component drawn) it was -0.0955; in the experiment with S. pneumoniae D39V (main component drawn), -0.0953.
Consider `C[C@H]1COc2c(N3CCN(C)CC3)c(F)cc3c(=O)c(C(=O)O)cn1c23` [Levofloxacin] + CN[C@H](CC(C)C)C(=O)N[C@H]1C(=O)N[C@@H](CC(N)=O)C(=O)N[C@H]2C(=O)N[C@H]3C(=O)N[C@H](C(=O)N[C@H](C(=O)O)c4cc(O)cc(O)c4-c4cc3ccc4O)[C@H](O[C@H]3C[C@](C)(N)[C@@H](O)[C@H](C)O3)c3ccc(c(Cl)c3)Oc3cc2cc(c3O[C@@H]2O[C@H](CO)[C@@H](O)[C@H](O)[C@H]2O[C@H]2C[C@](C)(NCc3ccc(-c4ccc(Cl)cc4)cc3)[C@@H](O)[C@H](C)O2)Oc2ccc(cc2Cl)[C@H]1O [Oritavancin], for which the Bliss interaction score in the experiment with B. subtilis 168 is 0.031; in the experiment with S. aureus DSM 20231, 0.0291; in the experiment on S. aureus Newman, 0.0454; in the experiment on S. pneumoniae D39V, -0.0616.
Take `CO/N=C(\C(=O)N[C@@H]1C(=O)N2C(C(=O)[O-])=C(C[N+]3(C)CCCC3)CS[C@H]12)c1csc(N)n1` [Cefepime] + CCC[C@@H]1C[C@@H](C(=O)N[C@@H]([C@H]2O[C@H](SC)[C@H](O)[C@@H](O)[C@H]2O)[C@H](C)Cl)N(C)C1 [Clindamycin]: the Bliss interaction score was found to be 0.0651 in the experiment with B. subtilis 168, 0.0679 in the experiment with S. aureus DSM 20231, 0.0778 in the experiment with S. aureus Newman and 0.162 in the experiment with S. pneumoniae D39V.
For `CO/N=C(\C(=O)N[C@@H]1C(=O)N2C(C(=O)[O-])=C(C[N+]3(C)CCCC3)CS[C@H]12)c1csc(N)n1` [Cefepime] + CC[C@H]1OC(=O)[C@H](C)[C@@H](O[C@H]2C[C@@](C)(OC)[C@@H](O)[C@H](C)O2)[C@H](C)[C@@H](O[C@@H]2O[C@H](C)C[C@H](N(C)C)[C@H]2O)[C@](C)(OC)C[C@@H](C)C(=O)[C@H](C)[C@@H](O)[C@]1(C)O [Clarithromycin], the Bliss interaction score was determined as 0.0395 with B. subtilis 168, 0.128 with S. aureus DSM 20231, 0.0613 in the experiment with S. aureus Newman and 0.07 in the experiment on S. pneumoniae D39V.
